Source: ChEMBL document CHEMBL3988442, “University of Dundee, Small-Polar-MMV Screening Library” (2021)
Where “and” joins values, the source holds several entries; their conditions need not be identical. Equal values may be shown once.

Columns and labels:
[1] = molecular target: T1, Tyrosyl-tRNA synthetase, putative (Trypanosoma cruzi (strain CL Brener), UniProt Q4DSP6); experiment: Trypanosoma cruzi tyrosyl tRNA synthetase (TcYRS) SOP; format: functional
T1 sequence (Q4DSP6 whole entry): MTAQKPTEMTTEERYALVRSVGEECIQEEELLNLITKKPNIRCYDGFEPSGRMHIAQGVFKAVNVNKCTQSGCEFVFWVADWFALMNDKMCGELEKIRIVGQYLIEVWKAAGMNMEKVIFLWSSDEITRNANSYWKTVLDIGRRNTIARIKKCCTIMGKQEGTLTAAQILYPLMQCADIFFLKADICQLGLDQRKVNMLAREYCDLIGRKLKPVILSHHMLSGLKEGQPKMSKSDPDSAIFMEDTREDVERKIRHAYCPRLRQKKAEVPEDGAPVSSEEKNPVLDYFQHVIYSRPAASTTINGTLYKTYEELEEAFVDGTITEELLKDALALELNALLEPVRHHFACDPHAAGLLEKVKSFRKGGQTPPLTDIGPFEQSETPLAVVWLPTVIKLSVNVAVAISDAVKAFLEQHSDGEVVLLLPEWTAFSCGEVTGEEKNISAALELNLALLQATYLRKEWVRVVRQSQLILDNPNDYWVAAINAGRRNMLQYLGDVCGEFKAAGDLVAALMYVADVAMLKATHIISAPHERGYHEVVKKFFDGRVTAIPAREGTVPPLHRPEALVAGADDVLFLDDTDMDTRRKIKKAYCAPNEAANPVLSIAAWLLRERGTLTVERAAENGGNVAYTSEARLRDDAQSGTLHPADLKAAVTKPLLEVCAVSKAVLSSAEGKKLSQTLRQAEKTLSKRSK

[2] = molecular target: T1, Tyrosyl-tRNA synthetase, putative; experiment: Trypanosoma cruzi tyrosyl tRNA synthetase (TcYRS) _High Tyrosine SOP; format: functional
[3] = molecular target: T2, Histidine--tRNA ligase (Leishmania infantum, UniProt A4I591); experiment: Leishmania infantum Histidine tRNA synthetase (LdHisRS); format: functional
T2 sequence (A4I591 whole entry): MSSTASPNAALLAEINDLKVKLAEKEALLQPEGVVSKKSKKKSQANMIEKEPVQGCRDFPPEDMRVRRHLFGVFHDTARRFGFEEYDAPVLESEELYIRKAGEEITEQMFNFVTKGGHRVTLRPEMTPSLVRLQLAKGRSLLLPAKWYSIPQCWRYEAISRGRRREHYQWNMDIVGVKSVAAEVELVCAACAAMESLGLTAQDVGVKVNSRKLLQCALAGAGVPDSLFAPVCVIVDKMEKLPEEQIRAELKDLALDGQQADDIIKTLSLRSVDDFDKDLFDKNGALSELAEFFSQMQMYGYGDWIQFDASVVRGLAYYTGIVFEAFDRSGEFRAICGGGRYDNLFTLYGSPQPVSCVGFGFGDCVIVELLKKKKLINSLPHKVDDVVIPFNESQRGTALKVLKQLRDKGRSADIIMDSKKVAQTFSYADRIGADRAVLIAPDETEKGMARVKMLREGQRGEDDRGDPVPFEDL

[4] = To identify inhibition of the IFN signalling (Jak-Stat) pathway via expression of an eGFP reporter gene under the control of an IFN-stimulated response element (ISRE) containing MxA promoter.; format: functional, Homo sapiens
[5] = molecular target: T3, Shiga toxin 2 (Escherichia coli O157:H7, UniProt P09385+P09386); experiment: E. coli 0.157:H7 Shiga Toxin SOP - stx2 screening assay; format: functional
T3 sequence (P09385 whole entry): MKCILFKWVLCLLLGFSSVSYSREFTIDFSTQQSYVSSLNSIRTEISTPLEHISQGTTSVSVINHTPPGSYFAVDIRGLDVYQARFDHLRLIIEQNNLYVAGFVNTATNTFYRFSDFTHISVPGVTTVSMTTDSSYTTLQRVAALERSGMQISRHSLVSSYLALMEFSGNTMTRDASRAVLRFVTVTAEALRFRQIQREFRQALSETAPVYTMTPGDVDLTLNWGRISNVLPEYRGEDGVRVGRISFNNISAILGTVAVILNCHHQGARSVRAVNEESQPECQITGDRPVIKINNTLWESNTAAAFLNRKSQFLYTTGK
T3 sequence (P09386 whole entry): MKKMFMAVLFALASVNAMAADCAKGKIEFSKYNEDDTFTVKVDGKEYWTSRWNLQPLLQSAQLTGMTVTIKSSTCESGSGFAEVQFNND

[6] = In vitro enzyme assay to detect hydrolysis of chlorophenol red-beta-D-[…] directly proportional to the number of Toxoplasma stably expressing beta-galactosidase; format: functional, organism-based, Toxoplasma gondii; settings: Toxoplasma gondii
[7] = molecular target: Polyketide synthase Pks13 (Mycobacterium tuberculosis (strain ATCC 25618 / H37Rv), UniProt I6X8D2); experiment: Mycobacterium tuberculosis Polyketide synthase 13 Thioesterase (PKS13); format: functional
Polyketide synthase Pks13, sequence (I6X8D2 whole entry, the tested form may be a part): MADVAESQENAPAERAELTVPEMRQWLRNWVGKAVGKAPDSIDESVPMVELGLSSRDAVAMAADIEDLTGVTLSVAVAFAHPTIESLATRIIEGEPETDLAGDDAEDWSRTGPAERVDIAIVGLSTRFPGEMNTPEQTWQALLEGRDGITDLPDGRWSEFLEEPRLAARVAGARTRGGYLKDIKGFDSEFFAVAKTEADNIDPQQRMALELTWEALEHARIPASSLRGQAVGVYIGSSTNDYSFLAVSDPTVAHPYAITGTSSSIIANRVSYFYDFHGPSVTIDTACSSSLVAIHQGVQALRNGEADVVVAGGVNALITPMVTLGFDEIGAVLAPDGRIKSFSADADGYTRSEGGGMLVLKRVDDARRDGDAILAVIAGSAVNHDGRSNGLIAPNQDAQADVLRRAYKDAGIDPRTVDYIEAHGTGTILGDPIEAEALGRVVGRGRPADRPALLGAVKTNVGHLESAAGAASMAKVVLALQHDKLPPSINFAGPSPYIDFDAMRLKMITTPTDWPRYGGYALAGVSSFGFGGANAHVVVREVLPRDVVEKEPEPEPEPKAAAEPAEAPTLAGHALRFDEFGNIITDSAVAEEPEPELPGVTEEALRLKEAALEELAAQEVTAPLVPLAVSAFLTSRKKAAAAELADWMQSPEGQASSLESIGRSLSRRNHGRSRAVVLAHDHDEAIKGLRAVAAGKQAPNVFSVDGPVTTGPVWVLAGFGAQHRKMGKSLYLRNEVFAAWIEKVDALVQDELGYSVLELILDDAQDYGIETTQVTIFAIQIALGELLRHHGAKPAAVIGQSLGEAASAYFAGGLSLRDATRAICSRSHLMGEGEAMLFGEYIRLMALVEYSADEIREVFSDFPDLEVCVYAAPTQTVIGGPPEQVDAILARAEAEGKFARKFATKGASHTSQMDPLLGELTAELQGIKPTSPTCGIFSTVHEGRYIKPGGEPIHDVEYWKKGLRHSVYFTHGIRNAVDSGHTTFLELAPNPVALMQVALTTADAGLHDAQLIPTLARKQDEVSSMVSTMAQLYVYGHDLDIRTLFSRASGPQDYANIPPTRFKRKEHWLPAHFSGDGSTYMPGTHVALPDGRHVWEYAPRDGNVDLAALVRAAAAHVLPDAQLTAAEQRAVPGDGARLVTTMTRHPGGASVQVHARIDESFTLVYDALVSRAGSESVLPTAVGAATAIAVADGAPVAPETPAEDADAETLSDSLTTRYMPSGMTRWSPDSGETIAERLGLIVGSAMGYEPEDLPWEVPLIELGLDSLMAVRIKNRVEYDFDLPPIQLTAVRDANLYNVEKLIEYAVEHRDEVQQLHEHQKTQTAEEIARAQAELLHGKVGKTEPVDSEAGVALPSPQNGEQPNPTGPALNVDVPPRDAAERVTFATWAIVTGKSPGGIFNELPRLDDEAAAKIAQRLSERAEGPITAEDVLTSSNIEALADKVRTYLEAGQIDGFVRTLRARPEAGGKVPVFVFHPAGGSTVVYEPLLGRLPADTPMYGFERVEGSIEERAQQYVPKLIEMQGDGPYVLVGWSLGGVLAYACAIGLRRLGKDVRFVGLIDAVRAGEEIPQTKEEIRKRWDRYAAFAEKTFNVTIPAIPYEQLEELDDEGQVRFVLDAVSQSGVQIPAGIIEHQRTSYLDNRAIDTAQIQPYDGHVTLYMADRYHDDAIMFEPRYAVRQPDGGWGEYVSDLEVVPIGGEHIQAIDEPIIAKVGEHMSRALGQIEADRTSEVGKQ

[8] = molecular target: Chromo domain-containing protein 1 (Saccharomyces cerevisiae (strain ATCC 204508 / S288c) (Baker's yeast), UniProt P32657); experiment: ScCHD-1 Enzyme Inhibition Assay; format: functional
Chromo domain-containing protein 1, sequence (P32657 whole entry, the tested form may be a part): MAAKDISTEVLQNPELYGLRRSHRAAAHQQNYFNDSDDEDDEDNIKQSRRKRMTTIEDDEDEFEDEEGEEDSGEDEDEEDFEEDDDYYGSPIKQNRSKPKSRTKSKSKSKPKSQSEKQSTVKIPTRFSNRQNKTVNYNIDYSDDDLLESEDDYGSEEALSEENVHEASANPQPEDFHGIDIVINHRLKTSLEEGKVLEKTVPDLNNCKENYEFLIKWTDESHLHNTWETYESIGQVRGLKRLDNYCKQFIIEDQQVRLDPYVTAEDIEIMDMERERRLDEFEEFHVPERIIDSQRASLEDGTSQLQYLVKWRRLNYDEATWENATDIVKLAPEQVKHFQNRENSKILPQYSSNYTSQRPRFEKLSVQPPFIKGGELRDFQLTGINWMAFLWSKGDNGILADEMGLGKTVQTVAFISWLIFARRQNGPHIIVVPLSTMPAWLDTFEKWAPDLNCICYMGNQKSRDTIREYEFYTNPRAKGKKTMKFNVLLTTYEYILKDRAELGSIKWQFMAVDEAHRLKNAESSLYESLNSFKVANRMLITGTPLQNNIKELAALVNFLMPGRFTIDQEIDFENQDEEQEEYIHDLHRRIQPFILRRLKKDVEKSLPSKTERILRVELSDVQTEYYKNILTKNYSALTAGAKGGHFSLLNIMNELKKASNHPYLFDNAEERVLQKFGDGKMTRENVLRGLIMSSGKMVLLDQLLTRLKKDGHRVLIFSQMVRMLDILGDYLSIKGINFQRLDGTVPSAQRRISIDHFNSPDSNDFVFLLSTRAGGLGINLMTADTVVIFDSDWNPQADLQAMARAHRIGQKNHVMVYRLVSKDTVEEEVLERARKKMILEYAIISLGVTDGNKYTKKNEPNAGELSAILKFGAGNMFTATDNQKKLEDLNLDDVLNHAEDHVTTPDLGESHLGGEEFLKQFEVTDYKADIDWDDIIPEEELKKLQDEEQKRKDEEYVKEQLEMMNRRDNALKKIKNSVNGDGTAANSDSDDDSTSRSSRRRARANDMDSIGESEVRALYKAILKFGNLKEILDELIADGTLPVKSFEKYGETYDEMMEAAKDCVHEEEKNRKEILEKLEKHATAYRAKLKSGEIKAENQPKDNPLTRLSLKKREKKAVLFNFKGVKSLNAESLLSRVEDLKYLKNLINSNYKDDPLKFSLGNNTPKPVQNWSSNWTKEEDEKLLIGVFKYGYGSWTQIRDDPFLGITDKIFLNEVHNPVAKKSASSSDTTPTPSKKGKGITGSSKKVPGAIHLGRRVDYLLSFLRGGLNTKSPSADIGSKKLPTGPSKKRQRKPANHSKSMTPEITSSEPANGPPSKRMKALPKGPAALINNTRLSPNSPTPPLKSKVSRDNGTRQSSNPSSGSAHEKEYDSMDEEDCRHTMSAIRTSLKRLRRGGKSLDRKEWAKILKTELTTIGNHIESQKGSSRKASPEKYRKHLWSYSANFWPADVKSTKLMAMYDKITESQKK

[9] = molecular target: T4, Aspartate--tRNA(Asp/Asn) ligase (Mycobacterium tuberculosis (strain ATCC 25618 / H37Rv), UniProt P9WFW3); experiment: Assay for Asp RNA synthetase-1 from Mycobacterium tuberculosis; format: functional
T4 sequence (P9WFW3 whole entry): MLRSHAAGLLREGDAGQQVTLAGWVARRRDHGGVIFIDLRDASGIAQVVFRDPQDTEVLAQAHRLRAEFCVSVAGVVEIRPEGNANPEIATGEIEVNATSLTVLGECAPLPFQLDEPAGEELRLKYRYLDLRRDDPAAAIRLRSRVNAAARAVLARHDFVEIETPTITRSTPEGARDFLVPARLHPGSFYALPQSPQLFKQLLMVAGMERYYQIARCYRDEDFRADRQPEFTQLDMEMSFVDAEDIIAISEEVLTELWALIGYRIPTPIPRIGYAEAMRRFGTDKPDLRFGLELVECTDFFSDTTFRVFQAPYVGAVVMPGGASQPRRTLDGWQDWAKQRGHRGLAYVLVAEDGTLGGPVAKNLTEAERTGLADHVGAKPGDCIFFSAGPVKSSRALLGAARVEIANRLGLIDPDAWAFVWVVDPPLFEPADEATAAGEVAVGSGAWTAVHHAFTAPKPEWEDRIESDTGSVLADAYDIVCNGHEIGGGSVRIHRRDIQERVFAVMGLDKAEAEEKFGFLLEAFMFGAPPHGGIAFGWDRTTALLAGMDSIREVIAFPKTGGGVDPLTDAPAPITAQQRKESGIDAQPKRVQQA

[10] = molecular target: Protein translocase subunit SecA (Escherichia coli (strain K12), UniProt P10408); experiment: Assay to Identify E. coli SecA ATPase Inhibitors; format: functional
Protein translocase subunit SecA, sequence (P10408 whole entry): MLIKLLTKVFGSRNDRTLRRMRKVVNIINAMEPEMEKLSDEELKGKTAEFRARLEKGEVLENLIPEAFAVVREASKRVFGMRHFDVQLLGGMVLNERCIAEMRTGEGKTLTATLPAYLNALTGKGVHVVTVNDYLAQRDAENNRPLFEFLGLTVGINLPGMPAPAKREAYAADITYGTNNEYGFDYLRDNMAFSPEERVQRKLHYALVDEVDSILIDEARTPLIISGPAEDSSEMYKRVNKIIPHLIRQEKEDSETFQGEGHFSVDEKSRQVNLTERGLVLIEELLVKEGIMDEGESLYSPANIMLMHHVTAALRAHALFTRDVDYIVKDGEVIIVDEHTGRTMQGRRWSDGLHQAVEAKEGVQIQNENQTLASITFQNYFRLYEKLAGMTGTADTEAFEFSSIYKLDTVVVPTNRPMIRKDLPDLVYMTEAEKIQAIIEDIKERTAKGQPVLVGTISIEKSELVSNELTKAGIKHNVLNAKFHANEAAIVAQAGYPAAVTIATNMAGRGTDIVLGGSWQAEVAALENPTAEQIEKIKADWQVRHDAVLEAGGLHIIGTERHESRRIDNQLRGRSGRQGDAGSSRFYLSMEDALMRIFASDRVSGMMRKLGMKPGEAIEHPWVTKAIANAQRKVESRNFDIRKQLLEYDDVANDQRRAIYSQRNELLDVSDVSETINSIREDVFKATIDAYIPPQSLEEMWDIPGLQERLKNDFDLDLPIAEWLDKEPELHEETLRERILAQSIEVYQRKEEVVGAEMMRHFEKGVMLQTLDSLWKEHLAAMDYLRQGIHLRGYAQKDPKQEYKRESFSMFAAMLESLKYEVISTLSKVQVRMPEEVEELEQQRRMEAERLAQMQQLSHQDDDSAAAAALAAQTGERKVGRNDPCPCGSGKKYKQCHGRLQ

[11] = molecular target: Tryptophan--tRNA ligase (Mycobacterium tuberculosis (strain ATCC 25618 / H37Rv), UniProt P9WFT3); experiment: Biochemical assay for Mt-TrpRS; format: functional
Tryptophan--tRNA ligase, sequence (P9WFT3 whole entry): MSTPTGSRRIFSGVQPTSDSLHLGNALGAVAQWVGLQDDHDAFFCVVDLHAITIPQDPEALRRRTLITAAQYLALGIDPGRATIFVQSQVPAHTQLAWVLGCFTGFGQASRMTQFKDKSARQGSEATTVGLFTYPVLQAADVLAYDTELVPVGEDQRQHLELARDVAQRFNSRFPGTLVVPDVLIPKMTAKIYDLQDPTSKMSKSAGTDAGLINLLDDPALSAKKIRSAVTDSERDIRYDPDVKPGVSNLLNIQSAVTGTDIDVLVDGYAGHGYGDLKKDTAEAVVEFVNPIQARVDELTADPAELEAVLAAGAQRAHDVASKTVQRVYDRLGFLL

[12] = molecular target: Lysine--tRNA ligase (Plasmodium falciparum (isolate 3D7), UniProt Q8IDJ8); experiment: Pf-KRS-1 (Lysyl-RNA Synthetase-1, KRS-1, cytosolic KRS) from Plasmodium falciparum. Inhibitor assay, 384 well plate, luminescence read.; format: functional
Lysine--tRNA ligase, sequence (Q8IDJ8 whole entry): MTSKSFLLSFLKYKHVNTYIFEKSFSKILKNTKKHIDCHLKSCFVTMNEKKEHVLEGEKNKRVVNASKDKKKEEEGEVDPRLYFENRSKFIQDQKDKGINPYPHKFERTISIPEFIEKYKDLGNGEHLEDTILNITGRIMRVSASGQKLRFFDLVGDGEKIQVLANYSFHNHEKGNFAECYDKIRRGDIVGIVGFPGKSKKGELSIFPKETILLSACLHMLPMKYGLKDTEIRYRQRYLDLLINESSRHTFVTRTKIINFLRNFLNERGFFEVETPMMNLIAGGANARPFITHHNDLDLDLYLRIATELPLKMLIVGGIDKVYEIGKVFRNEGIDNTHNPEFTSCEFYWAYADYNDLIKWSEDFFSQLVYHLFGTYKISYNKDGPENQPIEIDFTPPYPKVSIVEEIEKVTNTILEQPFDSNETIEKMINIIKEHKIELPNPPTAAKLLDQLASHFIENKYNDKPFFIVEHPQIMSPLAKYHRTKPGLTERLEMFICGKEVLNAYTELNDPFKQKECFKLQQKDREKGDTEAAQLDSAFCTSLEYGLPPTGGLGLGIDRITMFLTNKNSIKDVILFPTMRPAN

[13] = system: Schistosoma mansoni; experiment: High throughput screening of compounds against Schistosoma mansoni motility; format: functional; set-up: dose or concentration left out as unconfirmed
[14] = molecular target: T5, Histidine--tRNA ligase (Trypanosoma cruzi (strain CL Brener), UniProt Q4DA54); experiment: Trypanosoma cruzi histidyl tRNA synthetase (Tc-HisRS); format: functional
T5 sequence (Q4DA54 whole entry): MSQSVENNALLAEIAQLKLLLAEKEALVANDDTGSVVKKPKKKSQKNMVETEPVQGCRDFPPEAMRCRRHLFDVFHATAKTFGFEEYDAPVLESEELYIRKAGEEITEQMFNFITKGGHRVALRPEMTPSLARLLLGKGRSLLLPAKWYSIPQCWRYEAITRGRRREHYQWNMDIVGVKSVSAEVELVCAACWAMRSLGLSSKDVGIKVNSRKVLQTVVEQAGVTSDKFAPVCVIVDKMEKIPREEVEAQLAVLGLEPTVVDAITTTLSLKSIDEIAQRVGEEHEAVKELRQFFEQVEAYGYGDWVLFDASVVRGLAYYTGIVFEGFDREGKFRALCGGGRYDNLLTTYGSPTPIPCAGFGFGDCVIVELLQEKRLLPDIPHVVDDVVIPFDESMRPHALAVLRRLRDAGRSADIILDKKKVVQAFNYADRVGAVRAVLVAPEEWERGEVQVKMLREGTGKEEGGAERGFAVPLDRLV

[15] = system: Plasmodium falciparum; experiment: Calibr Malaria Delayed Death Assay SOP; format: functional, organism-based
[16] = system: Leishmania donovani; experiment: Leishmania intramacrophage assay; format: functional, organism-based; settings: Leishmania donovani

In the case of `Cc1cccnc1NC(=O)NCc1ccc(N2CCNC(=O)C2)cc1`, the IC50 [1] is reported as 53.1 µM and 32.9 µM, the IC50 [2] is reported as 52 µM and 31.6 µM and the IC50 [3] is reported as 19.7 µM and 15 µM.
For `Cc1noc(NC(=O)c2ccc(Br)cc2)n1`, the pIC50 [4] was 4.648 and 4.809, the IC50 [5] was > 100 µM and the IC50 [6] was 9.76 µM.
With `COCCN1C[C@@H]2CN(c3ncccn3)C[C@@H]2C1=O` the IC50 [7] was > 100 µM, the IC50 [8] was > 29.5 µM and the IC50 [1] was > 100 µM. For the same compound, the IC50 [2] was > 100 µM.
With `CNC(=O)[C@H]1CCS(=O)(=O)[C@@H]2CN(Cc3ccc(OC)cc3)C[C@H]12` the IC50 [1] was > 100 µM and the IC50 [2] was > 100 µM.
With `COCCN(C)C(=O)Cn1cccc(OC)c1=O` the IC50 [9] was > 100 µM and the IC50 [3] was > 100 µM.
With `CC1(C)OCC(CNC(=O)c2cnn(-c3ccc(Cl)cc3)c2N)O1` (configuration not stated) the IC50 [5] was > 100 µM and the IC50 [10] was > 100 µM.
For `CN(CCCOc1ccccc1)C(=O)CN1CCc2cncnc2C1`, the IC50 [1] was > 100 µM, the IC50 [2] was > 100 µM and the IC50 [3] was 44 µM and 39.2 µM.
For `Fc1ccc(OCc2noc(CN3CCc4cncnc4C3)n2)cc1`, the IC50 [1] was > 100 µM, the IC50 [2] was > 100 µM and the IC50 [3] was 49.6 µM and 74.9 µM.
In the case of `Cc1cc(CN2CCc3nn(C)c(=O)cc3C2)on1`, the IC50 [11] is reported as > 195 µM, the IC50 [9] is reported as > 100 µM and the IC50 [3] is reported as 35.6 µM and 40.1 µM. The IC50 [12] was > 50.1 µM and the “Percent Effect” value [13] was -21.81%.
In the case of `COc1ccc(C2SC(C)=Nc3c2c(=O)[nH]n3C2CCCCC2)cc1O` (configuration not stated), the IC50 [1] is reported as > 100 µM and the IC50 [2] is reported as > 100 µM.
With `O=C(O)C(F)(F)F.c1cnc(N2CCC3(CC2)CN(CC2CC2)c2ccccc23)nc1` the IC50 [14] was 32.3 µM and 19.9 µM, the pIC50 [15] was 6.09 and the IC50 ([15]; Plasmodium falciparum) was 1.26 µM. The IC50 [1] was 16.3 µM and 16.2 µM, the IC50 [2] was 19.4 µM and 17.9 µM and the IC50 [3] was 9.51 µM and 9.98 µM.
With `CNC(=O)C1(c2cnccn2)CCCN1C(=O)c1ccn(C)n1` (configuration not stated) the IC50 [1] was > 100 µM and the IC50 [2] was > 100 µM.
In the case of `CN(CC1CC1)c1ccc2ccc(C(=O)NCCN3CCOCC3)cn12`, the IC50 [16] is reported as > 50.1 µM, the IC50 [1] is reported as > 100 µM and the IC50 [2] is reported as 94.4 µM and > 100 µM.
In the case of `O=C(C1=CCCC1)N1C[C@H](Oc2cccnc2)[C@H]2OCCC[C@H]21`, the IC50 [1] is reported as > 100 µM and the IC50 [2] is reported as > 100 µM.
